Target: Adrenergic receptor alpha (Homo sapiens) (UniProt P35348+P08913+P18825+P25100+P35368+P18089)
Test: Blocking activity towards Alpha adrenergic receptor of rabbit aortic tissue preparation was determined
Details: Oryctolagus cuniculus; target entry is the homologue from another species

| SMILES | -Log KB |
| --- | --- |
| c1ccc(C[C@H]2CN=C(Cc3cccc4ccccc34)N2)cc1 | 6.57 |
| c1ccc(C[C@@H]2CN=C(Cc3cccc4ccccc34)N2)cc1 | 6.34 |
| C[C@H]1CN=C(Cc2cccc3ccccc23)N1 | 5.76 |
| c1ccc(CC2NC[C@@H](Cc3ccccc3)N2)cc1 (stereo partly drawn) | 4.98 |
| C[C@H]1CN=C(Nc2c(Cl)cccc2Cl)N1 | 5.27 |
| c1ccc(CC2NC[C@H](Cc3ccccc3)N2)cc1 (stereo partly drawn) | 5 |
| C[C@@H]1CN=C(Cc2cccc3ccccc23)N1 | 5.6 |
| C[C@@H]1CN=C(Nc2c(Cl)cccc2Cl)N1 | 5.08 |

— ChEMBL document CHEMBL1121613
